Bounds are passed on as bounds.

Broadly, the melting point is the temperature, or range, at which the solid turns liquid. In the case of `COC(=O)c1c(Cl)ccc2[nH]c(Sc3cccc4c(S(C)(=O)=O)c[nH]c34)nc12`, the melting point is 284 to 286 °C.

Regarding `Cc1nn(C)c(C(=O)C(C#N)c2ccc(C(C)(C)C)cc2)c1C` (stereo unspecified), the melting point came to 178 °C. The compound `Cc1c(C(=O)c2ccccc2F)n(N2C(=O)c3ccccc3C2=O)c2ccccc12` gave a melting point of 197 to 199 °C. `CC(C)c1ccc(SCc2c(C(C)C)nc(C(C)C)c(CO)c2-c2ccc(F)cc2)cc1`: the melting point was 108 to 109 °C. With `CCC1(c2cccs2)OCC(=O)Nc2ccc(-c3sc(C#N)cc3C)cc21` (stereo unspecified) the figure was 182 to 184 °C. Consider `O=C(NN1CCCCC1)c1cc(Oc2c(F)cc(C(F)(F)F)cc2Cl)ccc1[N+](=O)[O-]`, for which the melting point was in the range of 65 to 68 °C. Next, `CN(C)C=C1CCN(Cc2ccc([N+](=O)[O-])cc2)c2ccsc2C1=O`: 214 to 216 °C; `CC1(C)C2CC[C@]1(C)C(=O)C(C(=O)Nc1ccc(F)c(Cl)c1)C2=O` (stereo partly specified): 87 to 89 °C; `CCCC(C)(C)c1cc(N2CCC(C)C2=O)no1` (stereo unspecified): 30 to 31 °C. With `COC(=O)C(C)Oc1ccc(OCc2ccccc2)cc1` (stereo unspecified), the melting point fell in the range of 63 to 65 °C. Next, `COc1ccc(CCN(C)CCCCc2ccc(NC(=O)c3cccc4c(=O)c5ccccc5[nH]c34)cc2)cc1OC`: 120 °C. Turning to `Cc1n[nH]c(-c2ccccc2)c1-c1ccncc1`, the melting point is 212 to 214 °C. With `CN(C)c1cccc(/C=C/c2c(F)cccc2F)c1` the figure was 69 to 71 °C; with `N#Cc1ccc(-c2ncc(C(F)(F)F)cc2Cl)cc1OCC(=O)C1CC1`, 115 to 116 °C; with `COc1ccc2c(c1)C(=O)CCC21CCC(=O)NC1=O` (stereo unspecified), 214 to 215 °C. The compound `CNC(=O)c1cc(C(=O)OCCO)cc(C(=O)NC)n1` yielded a melting point of 214 to 215 °C. With `CC(C(=O)O)c1ccc2cc(OCc3nc4ccccc4s3)ccc2c1` (stereo unspecified) the figure was 169 to 171 °C; with `CN(C)c1cncc(C(=NCCc2ccccc2Cl)NC#N)c1`, 158 °C; with `CC(C(=S)c1ccnc(NC=O)c1)S(C)=O` (stereo unspecified), 123 to 125 °C. Next, `CCn1cc(C(=O)C(Cl)Cl)c(=O)c(-c2cccc(C(F)(F)F)c2)c1`: 108 to 110 °C; `COc1cccc(Cl)c1C1C(=O)NC(C)(C(C)C)C1=O` (stereo unspecified): 172 to 174 °C. Next, `O=C1CC(C(F)(F)F)CC(=O)N1c1cc(C2OCCCO2)c(Cl)cc1F`: 158 to 161 °C; `COc1ccc(N2CCN(c3c(C)c(C)c4c(c3C)C(C)(O)C(C)(C)O4)CC2)cc1` (stereo unspecified): 139 to 141 °C; `CCN1c2ncc(CC(O)c3ccncc3)cc2C(=O)N(C)c2ccc(F)nc21` (stereo unspecified): 174 to 176 °C. Take `O=c1cc(C(F)(F)F)[nH]c(=O)n1-c1cc(O)c(Cl)cc1F`: the melting point lay in the range of 68 to 72 °C. With `CCCCCCCCCCCCCCCCCCOc1ccc(NC(=O)c2ccc(O)cc2)cc1` the figure was 170 °C; with `CCOC(=O)C(C)(C)S(=O)c1ccc2c(-c3ccc(Cl)cc3)noc2c1` (stereo unspecified), 89 °C; with `O=C(O)C=CSc1c[nH]c2ccccc12`, 172 to 173 °C. As for `O=S(=O)(F)C=CNc1ccc(C(F)(F)F)cc1`, the melting point lay within 71 to 73 °C. Next, `O=C(Nc1ccc(-n2nc(C(F)(F)F)cc2C(F)(F)F)cc1)c1ccncc1[N+](=O)[O-]`: 207 to 209 °C; `COC(=O)CCC#Cc1cccc(Br)n1`: 59 to 61 °C.

Consider `O=C(Oc1ccccc1)OC1c2ccccc2C(=O)N1c1ccc2ccc(Cl)nc2n1` (stereo unspecified), for which the melting point stood at 235 °C. With `NOCC=Cc1ccc(Br)cc1` the figure was 35 to 38 °C; with `CS(=O)(=O)c1ccc(-c2[nH]c3ccccc3c2-c2ccccc2)cc1`, 221 to 222 °C. With `N#CC(c1ccccc1Cl)N1CCc2sccc2C1` (stereo unspecified) the figure was 121 to 124 °C; with `CCCCN1CCC(NC(=O)c2ccc(NCc3ccnc4ccccc34)cc2)CC1`, 189 to 190 °C. Next, `Cc1nc(N2CCN(CC(C)C)C2=O)sc1C(=O)NCc1ccn(C)n1`: 158 to 161 °C; `COc1ccc(C2=NN=C(C)C(C)c3cc(OC)c(OC)cc32)cc1OC` (stereo unspecified): 201 to 203 °C. The compound `COc1cc(C=O)cc2c1OC1(C=C2Br)CCC1` yielded a melting point of 128 to 129 °C. Compound `CCn1cc(-c2ccccc2)c(=O)c(-c2cccc(C)c2)c1` showed a melting point of 87 to 89 °C.

`O=C1CCCc2[nH]c(=O)ccc21` showed a melting point of 302 to 303 °C. Take `FC(F)(F)Oc1ccc2nc(NC(=S)Nc3ccccc3)sc2c1`: the melting point was 234 °C. With `CC(C)(C)c1ccc(CC(=O)CCCl)cc1` the figure was 46 to 49 °C.

On to `Nc1cc([N+](=O)[O-])ccc1CO`, for which the melting point was 126 to 128 °C. With `COc1ccc2c(c1)C13CCN(C#N)C(C2)C1CCC(=O)C3` (stereo unspecified) the figure was 211 to 214 °C; with `O=C(CN1CCOCC1)N1CCN(c2ccc(O)cc2)CC1`, 197 °C; with `O=C1c2ccc([N+](=O)[O-])c3c([N+](=O)[O-])c(Br)cc(c23)C(=O)N1O`, 233 to 234 °C. For the compound `CONC1=NS(=O)(=O)c2cc(Cl)ccc2N1`, the melting point was above 220 °C. With `OC1(c2ccccc2Cc2ccccc2)CCC2(CC1)OCCO2` the figure was 97 to 98 °C; with `COC(=O)c1nc(C)c(-c2ccccc2)nc1N`, 162 °C.

Consider `CCOC(=O)C1(NC(=O)CC)Cc2cccc3c2N(CCC3)C1=O` (stereo unspecified), for which the melting point lay within 136 to 140 °C. Next, `Clc1ccc(N2CCN(Cc3coc4cccnc34)CC2)cc1`: 128 to 129 °C; `CCOC(=O)c1c(C)nc2[nH]c3ccccc3c2c1N`: 253 to 254 °C. With `Cn1c(-c2ccc3ccccc3c2)nnc1S(C)(=O)=O` the figure was 204 to 206 °C; with `FC(F)(F)c1csc(I)n1`, 35.5 to 36 °C. With `O=C1OC(Cc2ccc3c(c2)OCO3)CN1c1ccccc1` (stereo unspecified) the figure was 110 to 111 °C; with `O=C(NC1CC1)c1cccc(-c2cccn3c(=O)n(Cc4cccc(C(F)(F)F)c4)nc23)c1`, 157 to 158 °C.

For the compound `COC(=O)COc1cccc2c(CCN=[N+]=[N-])coc12`, the melting point is 95 to 97 °C. With `Nc1ccc(CC(=O)N2CCCC2)cc1N` the figure was 105 to 108 °C; with `c1ccc(-c2csc(-c3cccs3)n2)cc1`, 51 to 53 °C; with `CN1CCC(C2(O)c3sccc3CCn3ccnc32)CC1` (stereo unspecified), 177 °C. With `Cc1c2c(c(Cl)n1C)NC(=O)CN=C2c1ccccc1` the figure was 195 °C. Next, `Nc1nc(NCC(O)(c2ccccc2)c2ccccc2)c2ncn(C3OC(CO)C(O)C3O)c2n1` (stereo unspecified): 138 to 140 °C. `Nc1ccc(Sc2cccc3cnccc23)c([N+](=O)[O-])c1` had a melting point of 222 to 227 °C. With `CCc1ccc2cc(OC)cc(NC(C)CCCN)c2n1` (stereo unspecified) the figure was 111 to 114 °C; with `CC1(C)CCC(C)(C)c2cc(-c3cc(-c4ccc(C(=O)O)nc4)ccc3-c3ccccc3)ccc21`, 160 to 162 °C.

Source of the values: a melting point compilation (Tetko et al.; mined from patent text by program, amines drawn as free bases though some values may be those of a salt).
